Patent publication US20230293560A1, “METHOD FOR MODULATING THE BLADDER MICROBIOME TO IMPROVE BLADDER HEALTH” (Kimberly-Clark Worldwide, Inc., priority 2020, published 2023)
Where “and” joins values, the source holds several entries; their conditions need not be identical. Identical values can stand only once.

What was measured:
E. faecalis = experiment: High throughput assay screening of prebiotics; type: cell-based, Enterococcus faecalis; parameters: key: ++: if growth and fermentation was equal to or greater than the positive control; +: if growth and fermentation was less than the positive control; +: if weak or no growth or fermentation; +^2: Bacteria demonstrated growth but no fermentation on the prebiotic; details: 2% w/v prebiotic in API 50 CHL media; for growth and fermentation vs positive control, Ef-2: E. faecalis KC16-7171-3, Bladder; for growth and fermentation vs positive control, Ef-3: E. faecalis KC17-3969-2B, Bladder; for growth and fermentation vs positive control, Ef-4: E. faecalis KC17-4331-3, Bladder
Protocol: (§1) Most of the prebiotic compounds were initially tested in a high throughput assay screening process, described further in the Test Methods section herein, but three prebiotics (as noted in Table 3) were tested using a plate assay screening process as described in the Test Methods section herein. The prebiotics were tested against the commensal bacterial species of Lactobacillus crispatus, Lactobacillus gasseri, and Lactobacillus jensenii and against the pathogenic bacterial species of Streptococcus anginosus and Enterococcus faecalis as shown in Table 2. The bacterial species were taken from different sources, listed as culture collection, bladder, and vagina.
(§2) The results of the assay plate screening of the prebiotic compounds of Table 1 against the bacterial species of Table 2 is documented in Table 3 with the results being described by the following legend: • ++ if growth and fermentation was equal to or greater than the positive control • + if growth and fermentation was less than the positive control • […] if weak or no growth or fermentation • NT if not tested Some codes were not tested based on the use or non-use by the bacteria, as a way to efficiently move through the assay plate screening to the competition assay, described below.
(§3) • 1. Create a 2% w/v stock of prebiotic or positive control (glucose/dextrose) to be tested in API 50 CHL media (Biomerieux, Marcy-I'Étoile, France). API 50 CHL media contains minimal amounts of carbon for growth, and a bromocresol purple as a pH indicator of fermentation. Filter sterilize media with a […]. Store at 4-6° C. until use. • 2. Add 180 μL of media containing the prebiotic to a sterile, flat bottom 96-well microtiter plate (Corning, Corning, NY). • 3. From a freezer stock subculture the bacteria twice into De Man, Rogosa and Sharpe (MRS) broth (BD Difco, Becton Dickinson, Franklin Lakes, NJ), 37° C., stationary, anaerobic, overnight. • 4. From the last subculture, plate onto an MRS agar plate (Teknova, Hollister, CA) and grow 37° C., stationary, anaerobic, overnight. • 5. Create a bacterial suspension by using a sterile tipped swab to transfer colonies of bacteria into a PBS suspension blank to a 0.5 MacFarland (S. anginosus or E. faecalis) or a 1 MacFarland (Lactobacillus species) from the MRS agar plate. • 6. Enumerate the starting culture. • 7. Inoculate the media alone and media containing the prebiotic or positive control with 20 μL of the bacterial suspension. • 8. Place the plate into a spectrophotometer (Molecular Devices, San Jose, CA) and read the plate every 20 minutes for 24-48 hours. Read wavelengths (OD 430, OD 590, and OD 660). A color change to yellow caused by a drop in pH will be read by an increase in the OD430 value and a decrease in the OD590 value and is indicative of bacterial fermentation. An increase in OD660 values is indicative of an increase in turbidity and bacterial growth.

L. crispatus = experiment: High throughput assay screening of prebiotics; type: cell-based, Lactobacillus crispatus; parameters: key: ++: if growth and fermentation was equal to or greater than the positive control; +: if growth and fermentation was less than the positive control; +: if weak or no growth or fermentation; +^2: Bacteria demonstrated growth but no fermentation on the prebiotic; details: 2% w/v prebiotic in API 50 CHL media; for growth and fermentation vs positive control, Lc-3: L. crispatus KC18-1173-1, Bladder; for growth and fermentation vs positive control, Lc-4: L. crispatus KC18-1174-1, Vagina
Protocol: as §1, §2, §3

S. anginosus = experiment: High throughput assay screening of prebiotics; type: cell-based, Streptococcus anginosus; parameters: key: ++: if growth and fermentation was equal to or greater than the positive control; +: if growth and fermentation was less than the positive control; +: if weak or no growth or fermentation; +^2: Bacteria demonstrated growth but no fermentation on the prebiotic; details: S. anginosus KC18-1131-3B, Bladder; 2% w/v prebiotic in API 50 CHL media
Protocol: as §1, §2, §3

L. gasseri = experiment: High throughput assay screening of prebiotics; type: cell-based, Lactobacillus gasseri; parameters: key: ++: if growth and fermentation was equal to or greater than the positive control; +: if growth and fermentation was less than the positive control; +: if weak or no growth or fermentation; +^2: Bacteria demonstrated growth but no fermentation on the prebiotic; details: 2% w/v prebiotic in API 50 CHL media; for growth and fermentation vs positive control, Lg-1: L. gasseri KC16-7135-1, Bladder; for growth and fermentation vs positive control, Lg-2: L. gasseri KC16-7171-1, Bladder; for growth and fermentation vs positive control, Lg-3: L. gasseri KC18-1131-2, Bladder
Protocol: as §1, §2, §3

L. jensenii = experiment: High throughput assay screening of prebiotics; type: cell-based, Lactobacillus jensenii; parameters: key: ++: if growth and fermentation was equal to or greater than the positive control; +: if growth and fermentation was less than the positive control; +: if weak or no growth or fermentation; +^2: Bacteria demonstrated growth but no fermentation on the prebiotic; details: L. jensenii KC17-4297-18, Bladder; 2% w/v prebiotic in API 50 CHL media
Protocol: as §1, §2, §3

[1] = test system: commensal and pathogenic bacterial species; experiment: Prebiotic screening, summary in words across species; type: cell-based; details: for overall outcome of the screening of Table 3, in words: commensal (L. crispatus, L. gasseri, L. jensenii) and pathogenic (S. anginosus, E. faecalis) species
Protocol: as §1, §2, §3
• 1. An in house bacterial agar was created based on MRS agar (Kaplan and Hutkins, 2000) where the glucose is substituted for the prebiotic to be tested (either dextran MW ˜6,000, alpha-cyclodextrin, glucomannan, or pectin), bromocresol purple was included as a pH indicator. • 2. Bacteria were enumerated on each agar and color changes were recorded. Method for Competition Assay (Modified from “In Vitro Evaluation of Nutrients that Selectively Confer a Competitive Advantage to Lactobacilli” Vongsa et al, Beneficial Microbes 2016) • 1. Create 2% w/v stock of prebiotic or positive control (glucose/dextrose) as described above. • 2. From a freezer stock subculture the bacteria twice into De Man, Rogosa and Sharpe (MRS) broth (BD Difco, Becton Dickinson, Franklin Lakes, NJ), 37° C., stationary, anaerobic, overnight. • 3. From the last subculture, plate onto an MRS agar plate for L. crispatus KC18-1173-1 or blood agar for S. anginosus KC18-1131-3B, grow 37° C., stationary, anaerobic, overnight. • 4. […]

[2] = test system: S. anginosus, KC18-1131-3B, Bladder (Sa-2); type: cell-based; details: Table 6, prebiotic 2%, one line per replicate
Protocol: (§4) Further testing was conducted to put the prebiotic compounds in competition assay testing, as further described in the test methods section herein. In the competition assay testing, each competition involved testing a single prebiotic compound with the commensal bacteria species of L. crispatus, KC18-1173-1, Bladder (“Lc-3”—Table 2) against the pathogenic bacterial species of S. anginosus, KC18-1131-3B, Bladder (“Sa-2”—Table 2).
(§5) • 1. An in house bacterial agar was created based on MRS agar (Kaplan and Hutkins, 2000) where the glucose is substituted for the prebiotic to be tested (either dextran MW ˜6,000, alpha-cyclodextrin, glucomannan, or pectin), bromocresol purple was included as a pH indicator. • 2. Bacteria were enumerated on each agar and color changes were recorded. Method for Competition Assay (Modified from “In Vitro Evaluation of Nutrients that Selectively Confer a Competitive Advantage to Lactobacilli” Vongsa et al, Beneficial Microbes 2016) • 1. Create 2% w/v stock of prebiotic or positive control (glucose/dextrose) as described above. • 2. From a freezer stock subculture the bacteria twice into De Man, Rogosa and Sharpe (MRS) broth (BD Difco, Becton Dickinson, Franklin Lakes, NJ), 37° C., stationary, anaerobic, overnight. • 3. From the last subculture, plate onto an MRS agar plate for L. crispatus KC18-1173-1 or blood agar for S. anginosus KC18-1131-3B, grow 37° C., stationary, anaerobic, overnight. • 4. Create a bacterial suspension by using a sterile tipped swab to transfer colonies of bacteria into a PBS suspension blank to a 2 MacFarland for both species. • 5. Enumerate the starting culture. • 6. Add 9.8 mL of prebiotic media into a 15 mL conical tube. • 7. Add 100 μL of the diluted bacteria to the media, incubate at 37° C., anaerobic, 48 hours. • 8. Harvest 100 μL from the tube containing the prebiotic and plate onto MRS agar and tryptic soy agar (TSA). • 9. Enumerate the bacteria on the MRS agar (both the L. crispatus and the S. anginosus). Small colonies are counted as S. anginosus and large colonies are counted as L. crispatus. • 10. Enumerate the bacteria on the TSA plate. […] Growth of the bacteria in the negative control (CHL media without prebiotic) was subtracted from the growth in the presence of the prebiotic or formulation.

[3] = test system: L. crispatus, KC18-1173-1, Bladder (Lc-3); experiment: Competition assay, L. crispatus recovered; type: cell-based, Lactobacillus crispatus; details: Table 6, prebiotic 2%, one line per replicate
Protocol: as §4, §5

[4] = test system: ratio of L. crispatus/S. anginosus; experiment: Therapeutic effect protocol (competition assay); type: cell-based, Lactobacillus crispatus; Streptococcus anginosus; details: Table 6; prebiotic 2%; Lc-3 vs Sa-2
Source text: As used herein, the term “therapeutic effect” refers to the ability of the compositions and formulations of the present disclosure to stimulate the growth of L. crispatus relative S. anginosus measured according to the therapeutic effect protocol described below. The therapeutic effect can be expressed as a ratio of L. crispatus to S. anginosus and is desirably greater than about 100, more preferably greater than about 500 and more desirably greater than about 1,000.
as §4, §5
Colonies of L. crispatus and S. anginosus were tested against in the competition method assay test method as described above. The therapeutic effect was calculated by comparing the colony forming units recovered after the competition assay of both L. crispatus and S. anginosus and calculating the ratio of L. crispatus/S. anginosus. A larger number indicates an increase in L. crispatus and/or a decrease in S. anginosus and a smaller number indicates a decrease in L. crispatus and/or an increase in S. anginosus.

[5] = change vs start, background growth in CHL media subtracted, MRS agar

Row | Compound | growth and fermentation vs positive control, Ef-2 (E. faecalis) | growth and fermentation vs positive control, Ef-3 (E. faecalis) | growth and fermentation vs positive control, Ef-4 (E. faecalis) | growth and fermentation vs positive control, Lc-3 (L. crispatus) | growth and fermentation vs positive control, Lc-4 (L. crispatus) | growth and fermentation vs positive control, Sa-2 (S. anginosus) | growth and fermentation vs positive control, Lg-1 (L. gasseri) | growth and fermentation vs positive control, Lg-2 (L. gasseri) | growth and fermentation vs positive control, Lg-3 (L. gasseri) | growth and fermentation vs positive control, Lj-1 (L. jensenii) | overall outcome of the screening of Table 3, in words [1] | further results
1 | OC[C@H]1O[C@@H](O[C@H]2[C@H](O)[C@@H](O)[C@H](O)O[C@@H]2CO)[C@H](O)[C@@H](O)[C@@H]1O [D-Cellobiose] | ++ | ++ | ++ | + | + | ++ | + | ++ | ++ | + | able to provide growth on the commensal bacterial species, but also provided growth on the pathogenic bacterial species | growth and fermentation vs positive control, Lc-2 (L. crispatus; L. crispatus KC16-7134-3C, Bladder): ++; growth and fermentation vs positive control, Lg-4 (L. gasseri; L. gasseri KC18-1142-2, Bladder): ++
2 | OC[C@H]1O[C@H](O[C@H]2O[C@H](CO)[C@@H](O)[C@H](O)[C@H]2O)[C@H](O)[C@@H](O)[C@@H]1O [D-Trehalose] | ++ | ++ | ++ | ++ | + | ++ | ++ | ++ | ++ | + | – | –
3 | OC[C@@H](O)[C@@H](O[C@@H]1O[C@H](CO)[C@H](O)[C@H](O)[C@H]1O)[C@H](O)[C@@H](O)CO [Lactitol] | – | – | – | – | – | – | – | – | – | – | not able to provide growth for most, if not all, commensal and pathogenic bacterial species | growth and fermentation vs positive control, Ef-1 (E. faecalis; E. faecalis ATCC BAA-2128, Culture Collection): +; Sa-2 MRS Δ [2, 5]: 0.75 Log CFU/mL and 0.69 Log CFU/mL; Sa-2 TSA Δ ([2]; change vs start, background growth in CHL media subtracted, TSA): 0.58 Log CFU/mL and 0.52 Log CFU/mL; Sa-2 MRS end ([2]; competition Sa-2 vs Lc-3, 48 hours, anaerobic, enumerated on MRS agar): 7.45 Log CFU/mL and 7.54 Log CFU/mL; Sa-2 TSA end ([2]; competition Sa-2 vs Lc-3, 48 hours, enumerated on TSA): 7.43 Log CFU/mL and 7.65 Log CFU/mL; Lc-3 MRS Δ [3, 5]: 0.77 Log CFU/mL and 0.66 Log CFU/mL; Lc-3 MRS end ([3]; competition Sa-2 vs Lc-3, 48 hours, enumerated on MRS agar): 5.90 Log CFU/mL and 6.74 Log CFU/mL; Therapeutic Effect (ratio of L. crispatus/S. anginosus) [4]: 2.95E−02 (2×) and 1.23E−01 (2×); growth of commensal bacterial species, in words ([1]; commensal species from culture collection, the bladder, or the vagina): did not show any positive growth
